PMC5877348, “Presence of a Haloarchaeal Halorhodopsin-Like Cl^− Pump in Marine Bacteria” (Microbes and Environments, 2018)

Key:
[1] = biological target: T1, RmHR (Rubricoccus marinus halorhodopsin) (Rubricoccus marinus, UniProt A0A259U296); assay: biochemical; design: gene BSZ36_14690
[2] = biological target: T1, RmHR (Rubricoccus marinus halorhodopsin); assay: normal-phase HPLC of extracted retinal oxime; assay type: binding; design: gene BSZ36_14690; full-length codon-optimised synthetic gene in pET21a, C-terminal His6; expressed in E. coli, DDM-solubilised, purified; conditions: covalent (Schiff base); 1 M NaCl, 25°C, dark or illuminated at 540 nm; retinal supplied during expression

T1 sequence (A0A259U296 entry or part of it): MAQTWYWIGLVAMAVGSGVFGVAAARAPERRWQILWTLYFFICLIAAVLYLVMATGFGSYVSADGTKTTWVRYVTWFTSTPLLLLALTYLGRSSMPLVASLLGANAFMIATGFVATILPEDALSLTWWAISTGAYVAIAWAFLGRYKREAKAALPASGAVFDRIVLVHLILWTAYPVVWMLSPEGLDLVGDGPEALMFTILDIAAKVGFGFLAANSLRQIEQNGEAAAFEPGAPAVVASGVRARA

| Structure (SMILES) | Kd [1] [mM] | normal-phase HPLC of extracted retinal oxime [2] |
| --- | --- | --- |
| Cl [Cl^−] | 7.6 ± 1.7 |  |
| CC1=C(/C=C/C(C)=C/C=C/C(C)=C/C=O)C(C)(C)CCC1 [all-trans-retinal] |  | RmHR predominantly possesses all-trans retinal as a chromophore |
